Results reported in patent US20220298253A1, “TREATMENT OF RMS BY SWITCHING THERAPY” (Novartis AG, priority 2019, published 2022).
Entries after “also recorded” stand apart in the source; their conditions may differ. Like-named read-outs stand apart in the source and are kept apart here.

Columns and labels:
[1] = system: MS patients; test: ASCLEPIOS I: loss of thalamus volume; format: in vivo, human; conditions: for thalamus volume, mean percentage change between Month 24 and baseline: ASCLEPIOS I
Procedure: (§1) In ASCLEPIOS I patients were randomised (1:1) to receive either ofatumumab 20 mg sc injections every 4 weeks (after an initial loading regimen of 20 mg sc doses on Days 1, 7 and 14) or teriflunomide 14 mg orally once daily, for up to 30 months. Patients aged 18-55 years with an Expanded Disability Status Scale (EDSS) score (according to Kurtzke, Neurology. 1983, November; 33(11): 1444-52) of 0-5.5 at screening who experienced ≥1 relapse in the past year or ≥2 relapses in the past 2 years or a positive gadolinium-enhancing (Gd+) MM scan during the year before randomisation were included.

[2] = system: MS patients; test: ASCLEPIOS I: MSIS-29 impact score; format: in vivo, human
Procedure: The MSIS-29 version 2 is a 29-item, self-administered questionnaire that includes 2 domains: physical and psychological. Responses were captured on a 4-point ordinal scale ranging from 1 (not at all) to 4 (extremely), with higher scores reflecting greater impact on day-to-day life. The MSIS-29 takes about 5 minutes to complete and the questions are designed to determine the patient's views about the impact of MS on their day-to-day life during the past 2 weeks. Reference is made to Hobart J and Cano S (2009), “Improving the evaluation of therapeutic interventions in multiple sclerosis: the role of new psychometric methods”, Health Technol Assess; 13(12):iii, ix-x, […] to Hobart J, Lamping D, Fitzpatrick R, et al (2001), “The Multiple Sclerosis Impact Scale (MSIS-29): a new patient-based outcome measure”, Brain; 124(Pt 5):962-73.
as §1

[3] = system: patients with multiple sclerosis; conditions: cited from earlier work; for clinical and MRI course after anti-CD20 infusion: case reports, rebound after fingolimod cessation (Hatcher et al. 2016; Schmidt and Schulten 2019)
[4] = system: MS patients; conditions: cited from earlier work; for reduction in annualized relapse rate (ARR) compared to Aubagio (teriflunomide): p<0.001
[5] = system: primary human B cells; test: CDC after delayed addition of complement; format: cell-based; conditions: cells washed, complement source added after 6 hours; FIG. 3
Procedure: In a second experiment, B cells were incubated with antibody as described before, albeit in the absence of a source of complement. Cells were washed as described previously. After 6 hours, the source of complement was added.

[6] = system: patients with relapsing MS; test: Gd-enhancing T1 lesion numbers in patients switched from an earlier DMT to ofatumumab (Example 2); format: in vivo, human
Procedure: (§2) The effect of ofatumumab administered to patients who have been treated with DMTs other than ofatumumab has been investigated as described below.
(§3) Ofatumumab was provided in pre-filled syringes for subcutaneous administration containing 20 mg ofatumumab (50 mg/ml, 0.4 ml content). The matching placebo to ofatumumab pre-filled syringe had the same appearance as the investigational drug.
(§4) Ofatumumab arm: ofatumumab 20 mg s.c. injections on Day 1, 7, 14, Week 4 (Study Month 1) and every 4 weeks thereafter+teriflunomide-matching placebo capsule orally once daily.
(§5) Eligible patients can be randomized in a 1:1 ratio to either the active ofatumumab 20 mg group or to the active teriflunomide 14 mg group. The randomization was stratified by geographical region and by MS subtype (RRMS, SPMS).
(§6) Diagnosis of MS according to the 2010 Revised McDonald criteria (Polman et al. 2011).
(§7) Relapsing MS: relapsing-remitting course (RRMS), or secondary progressive (SPMS) course with disease activity, as defined by Lublin et al., 2014.
(§8) Disability status at Screening with an EDSS score of 0 to 5.5 (inclusive).
(§9) Patients previously treated with DMT selected from glatiramer acetate, dimethyl fumarate (DMF), daclizumab, fingolimod, natalizumab and laquinimod.
(§10) Documentation of at least: 1 relapse during the previous 1 year OR 2 relapses during the previous 2 years prior to Screening OR a positive Gd-enhancing MM scan during the year prior to randomization. Note: Screening MRI scan may be used if no positive Gd enhancing scan exist from prior year.
(§11) Neurologically stable within 1 month prior to randomization
The following results were obtained for the Gd lesion numbers.

[7] = Half-life of ofatumumab at steady state; format: in vivo; conditions: following subcutaneous administration of repeated 20 mg doses
[8] = system: patients with relapsing MS; test: Number of relapses in patients switched from an earlier DMT to ofatumumab (Example 2); format: in vivo, human; conditions: for Mean NURLP12: number of relapses in past 12 months (screening) / Mean NURLP24a: number of relapses in past 24 months (screening): before switch
Procedure: as §2, §3, §4, §5, §6, §7, §8, §9, §10, §11

[9] = system: primary human B cells; test: Ofatumumab-induced CDC of freshly isolated primary human B cells; format: cell-based; conditions: antibody and 30% human serum added simultaneously, 1 hour, flow cytometry; compared to ocrelizumab and rituximab; FIG. 2
[10] = earlier DMT fingolimod, ofatumumab 20 mg s.c.
[11] = earlier DMT fingolimod, ofatumumab 20 mg s.c., listed as OMB

Compound: C/C(O)=C(\C#N)C(=O)Nc1ccc(C(F)(F)F)cc1 [teriflunomide, reference compound]
- thalamus volume, mean percentage change between Month 24 and baseline [1]: −1.4%
- mean change in MSIS-29 physical impact score from baseline ([2]; Month 6): −0.44
- mean change in MSIS-29 physical impact score from baseline ([2]; Month 12): 0.17
- mean change in MSIS-29 physical impact score from baseline ([2]; Month 18): 0.67
- mean change in MSIS-29 physical impact score from baseline ([2]; Month 24): 0.59
- mean change in MSIS-29 physical impact score from baseline ([2]; Month 30): 0.55

Compound: ocrelizumab: anti-CD20 mAb administered by intravenous infusion
- clinical and MRI course after anti-CD20 infusion [3]: clinical worsening and new Gd-enhancing MRI lesions
- EDSS course after administration ([3]; two patients, more than 3 months after fingolimod withdrawal, FIG. 1): significant Expanded Disability Status Scale (EDSS) progression

Compound: ofatumumab: recombinant human monoclonal immunoglobulin G1 (IgG1) antibody that binds to human CD20
- thalamus volume, mean percentage change between Month 24 and baseline [1]: −1.00%
- thalamus volume change, mean difference ofatumumab vs teriflunomide ([1]; Month 24, p=0.002): 0.40
- suppression of gadolinium (Gd) T1 lesions compared to Aubagio ([4]; ASCLEPIOS I/II): highly significant suppression
- annualized relapse rate (ARR) ([4]; ASCLEPIOS I): 0.11
- reduction in annualized relapse rate (ARR) compared to Aubagio (teriflunomide) ([4]; ASCLEPIOS I): 50.5%
- annualized relapse rate (ARR) ([4]; ASCLEPIOS II): 0.10
- reduction in annualized relapse rate (ARR) compared to Aubagio (teriflunomide) ([4]; ASCLEPIOS II): 58.5%
- relative risk reduction in 3-month confirmed disability progression (CDP) versus Aubagio ([4]; pre-specified pooled analyses, p=0.002): 34.4%
- relative risk reduction in 6-month confirmed disability progression (CDP) versus Aubagio ([4]; pre-specified pooled analyses, p=0.012): 32.5%
- induction of CDC after delayed addition of complement [5]: potently induced CDC
- Mean Gd lesion number ([6]; earlier DMT DMF, BASELINE): 2.02
- Mean Gd lesion number ([6]; earlier DMT DMF, Week 48): 0
- Mean Gd lesion number ([6]; earlier DMT DMF, Week 96): 0
- Mean Gd lesion number ([6]; earlier DMT daclizumab, BASELINE): 0.18
- Mean Gd lesion number ([6]; earlier DMT daclizumab, Week 48): 0
- Mean Gd lesion number ([6]; earlier DMT daclizumab, Week 96): 0
- Mean Gd lesion number ([6]; earlier DMT fingolimod, BASELINE): 2.95
- Mean Gd lesion number ([6]; earlier DMT fingolimod, Week 48): 0.03
- Mean Gd lesion number ([6]; earlier DMT fingolimod, Week 96): 0
- Mean Gd lesion number ([6]; earlier DMT glatiramer acetate, BASELINE): 1.52
- Mean Gd lesion number ([6]; earlier DMT glatiramer acetate, Week 48): 0.02
- Mean Gd lesion number ([6]; earlier DMT glatiramer acetate, Week 96): 0.02
- Mean Gd lesion number ([6]; earlier DMT natalizumab, BASELINE): 2.5
- Mean Gd lesion number ([6]; earlier DMT natalizumab, Week 48): 0.04
- Mean Gd lesion number ([6]; earlier DMT natalizumab, Week 96): 0
- mean change in MSIS-29 physical impact score from baseline ([2]; Month 6): −2.75
- MSIS-29 physical impact score, mean difference ofatumumab vs teriflunomide ([2]; Month 6, p=0.017): −2.30
- mean change in MSIS-29 physical impact score from baseline ([2]; Month 12): −2.43
- MSIS-29 physical impact score, mean difference ofatumumab vs teriflunomide ([2]; Month 12, p=0.009): −2.59
- mean change in MSIS-29 physical impact score from baseline ([2]; Month 18): −2.37
- MSIS-29 physical impact score, mean difference ofatumumab vs teriflunomide ([2]; Month 18, p=0.005): −3.05
- mean change in MSIS-29 physical impact score from baseline ([2]; Month 24): −2.6
- MSIS-29 physical impact score, mean difference ofatumumab vs teriflunomide ([2]; Month 24, p=0.008): −3.19
- mean change in MSIS-29 physical impact score from baseline ([2]; Month 30): −3.21
- MSIS-29 physical impact score, mean difference ofatumumab vs teriflunomide ([2]; Month 30, p=0.026): −3.76
- MSIS-29 psychological impact score vs teriflunomide treatment group ([2]; difference statistically significant only at Month 12): stronger reduction
- half-life at steady state [7]: approximately 16 days
- Mean NCFRLP12: number of relapses up to month 12 post-first dose ([8]; earlier DMT DMF): 0.21
- Mean NCFRLP24: number of relapses up to month 24 post-first dose ([8]; earlier DMT DMF): 0.39
- Mean NURLP12: number of relapses in past 12 months (screening) ([8]; earlier DMT DMF): 1.11
- Mean NURLP24a: number of relapses in past 24 months (screening) ([8]; earlier DMT DMF): 2
- Mean NCFRLP12: number of relapses up to month 12 post-first dose ([8]; earlier DMT daclizumab): 0
- Mean NCFRLP24: number of relapses up to month 24 post-first dose ([8]; earlier DMT daclizumab): 0
- Mean NURLP12: number of relapses in past 12 months (screening) ([8]; earlier DMT daclizumab): 1
- Mean NURLP24a: number of relapses in past 24 months (screening) ([8]; earlier DMT daclizumab): 1.18
- Mean NURLP12: number of relapses in past 12 months (screening) ([8]; earlier DMT fingolimod): approx. 1.26
- Mean NURLP24a: number of relapses in past 24 months (screening) ([8]; earlier DMT fingolimod): 2.28
- Mean NURLP12: number of relapses in past 12 months (screening) ([8]; earlier DMT fingolimod, listed as OMB): 1.26
- Mean NCFRLP12: number of relapses up to month 12 post-first dose [8, 10]: approx. 0.23
- Mean NCFRLP24: number of relapses up to month 24 post-first dose [8, 10]: about 0.30
- Mean NCFRLP12: number of relapses up to month 12 post-first dose [8, 11]: 0.23
- Mean NCFRLP24: number of relapses up to month 24 post-first dose [8, 11]: 0.31
- Mean NCFRLP12: number of relapses up to month 12 post-first dose ([8]; earlier DMT glatiramer acetate): 0.10
- Mean NCFRLP24: number of relapses up to month 24 post-first dose ([8]; earlier DMT glatiramer acetate): 0.17
- Mean NURLP12: number of relapses in past 12 months (screening) ([8]; earlier DMT glatiramer acetate): 1.21
- Mean NURLP24a: number of relapses in past 24 months (screening) ([8]; earlier DMT glatiramer acetate): 2.13
- Mean NCFRLP12: number of relapses up to month 12 post-first dose ([8]; earlier DMT natalizumab): 0.13
- Mean NCFRLP24: number of relapses up to month 24 post-first dose ([8]; earlier DMT natalizumab): 0.2
- Mean NURLP12: number of relapses in past 12 months (screening) ([8]; earlier DMT natalizumab): 1.2
- Mean NURLP24a: number of relapses in past 24 months (screening) ([8]; earlier DMT natalizumab): 2.37
- induction of CDC (B cell lysis, SYTOX Blue+ cells) [9]: strong concentration-dependent induction

Compound: rituximab: anti-CD20 mAb administered by intravenous infusion
- clinical and MRI course after anti-CD20 infusion [3]: clinical worsening; also recorded: persistent Gd-enhancing lesions
